What is called IC50 is the concentration needed to halve the response being measured. The EC50 is the concentration that produces a half-maximal response. As usually defined, the Ki is a measure of affinity in units of concentration, obtained from inhibition or displacement. A high value points to weaker binding. For orientation: Kd means the free concentration of one partner at which half of the binding sites on the other are occupied at equilibrium, for simple one-to-one binding. Low values mean a tighter complex, high ones a looser complex.

The results in this text go back to ChEMBL document CHEMBL4725430, “Discovery of Zika Virus NS2B/NS3 Inhibitors That Prevent Mice from Life-Threatening Infection and Brain Damage” (ACS Med Chem Lett, 2020).

The source made the active and inactive calls. No cut-off for these calls is given here.

In data set [1] the test system is Zika virus. Description: Antiviral activity against Zika virus 976 Uganda infected in human HepG2 cells assessed as protection against viral infection by measuring cell survival at 10 uM measured after 4 days by CellTiter-Glo luminescent cell viability assay relative to control. The class given is functional. The note with it: HepG2, 96 h, time 4 day.
Data set [2] can be described thus: Cytotoxicity against human HepG2 cells assessed as cell viability at 10 uM measured after 4 days by CellTiter-Glo luminescent cell viability assay relative to control. The format is cell-based. The note with it: time 4 day, read-out: Activity. On the technique in general: Cellular ATP, detected with luciferase, serves as a proxy for viable cell number.
Data set [3] can be described thus: Inhibition of N-terminal thrombin cleavage fused His-tagged Zika virus ARD41644 NS2B Arg95Ala mutant (49 to 95 residues)/NS3 Arg29Gly mutant (1 to 170 residues) protease expressed in Escherichia coli BL21pLysS using Bz-nKRR-MCA peptide as substrate by FRET assay.
A short description of data set [4]: Cytotoxicity against human HepG2 cells assessed as cell viability at 100 uM measured after 4 days by CellTiter-Glo luminescent cell viability assay relative to control. The class given is cell-based. The note with it: time 4 day, read-out: Activity.
In data set [5] the test system is Zika virus. Description: Antiviral activity against Zika virus MR766 infected in human Huh-7 cells assessed as reduction in viral infection. The following applies: MR766, Huh-7. The class given is functional, organism-based.
Data set [6] is described as follows: Inhibition of DENV2 NS2B-NS3 protease using Bz-nKRR-MCA as substrate by FRET assay. Also on record: species or system dengue virus type 2.
A short description of data set [7]: Non- competitive inhibition of N-terminal thrombin cleavage fused His-tagged Zika virus ARD41644 NS2B Arg95Ala mutant (49 to 95 residues)/NS3 Arg29Gly mutant (1 to 170 residues) protease expressed in Escherichia coli BL21pLysS using varying levels Bz-nKRR-MCA as substrate by Lineweaver-Burk double reciprocal plot analysis.
Data set [8] can be described thus: Binding affinity to N-terminal thrombin cleavage fused His-tagged Zika virus ARD41644 NS2B Arg95Ala mutant (49 to 95 residues)/NS3 Arg29Gly mutant (1 to 170 residues) protease expressed in Escherichia coli BL21pLysS by MST method.
For data set [9], the system named is Zika virus. The data set is described as follows: Antiviral activity against Zika virus MR766 infected in human Huh-7 cells assessed as reduction in viral NS2B protein synthesis incubated for 3 days by Western blot analysis. The format is functional, organism-based. The note with it: dose microM 1-20, time 3.0 day. (In general: A western blot detects proteins with antibodies after separation by electrophoresis.)

Data set [10] concerns Zika virus. The data set is described as follows: Antiviral activity against Zika virus MR766 infected in human Huh-7 cells assessed as reduction in viral RNA synthesis incubated for 3 days by qRT-PCR analysis. The format is functional, organism-based. (In general: In qPCR the cycle at which signal appears reflects the starting amount.)
In a further data set the test system is Huh-7. Description: Cytotoxicity against human Huh-7 cells. The format is cell-based.
Data set [11] relates to Zika virus. Description: Antiviral activity against Zika virus infected in 6 days old suckling ICR mouse assessed as improvement in body weight at 1 mg/kg, ip administered at day 1, 3 and 5 post-infection and monitored daily for 6 days post-infection. The format is functional, organism-based.
Data set [12] has as its system Zika virus. The data set is described as follows: Antiviral activity against Zika virus infected in 6 days old suckling ICR mouse assessed as improvement in survival rate at 1 mg/kg, ip administered at day 1, 3 and 5 post-infection and monitored daily for 6 days post-infection. The format is functional, organism-based.
The subject of data set [13] is Zika virus. The data set is described as follows: Antiviral activity against Zika virus infected in 6 days old suckling ICR mouse assessed as inhibition of viral replication in brain at 1 mg/kg, ip administered at day 1, 3 and 5 post-infection by immunohistochemical staining. The class given is functional, organism-based.
Data set [14] concerns Zika virus. Description: Antiviral activity against Zika virus infected in 6 days old suckling ICR mouse assessed as reduction in virus titer in brain at 1 mg/kg, ip administered at day 1, 3 and 5 post-infection. The class given is functional, organism-based.
The subject of data set [15] is Zika virus. The data set is described as follows: Antiviral activity against Zika virus infected in 6 days old suckling ICR mouse assessed as reduction in brain damage at 1 mg/kg, ip administered at day 1, 3 and 5 post-infection by hematoxylin and eosin staining based analysis. The format is functional, organism-based.
The test system of data set [16] is Zika virus. The data set is described as follows: Antiviral activity against Zika virus infected in 6 days old suckling ICR mouse assessed as reduction in monocyte infiltration in brain at 1 mg/kg, ip administered at day 1, 3 and 5 post-infection by immunohistochemistry analysis. The format is functional, organism-based.
Data set [17] has as its system Zika virus. The data set is described as follows: Antiviral activity against Zika virus 976 Uganda infected in human HepG2 cells assessed as inhibition of viral infection measured after 4 days by CellTiter-Glo luminescent cell viability assay. The class given is functional, organism-based. The following applies: HepG2, 96 h.
Data set [18] has as its system Zika virus. Description: Antiviral activity against Zika virus infected in 6 days old suckling ICR mouse assessed as improvement in clinical scores at 1 mg/kg, ip administered at day 1, 3 and 5 post-infection and monitored daily for 6 days post-infection. The class given is functional, organism-based.

Consider `CCOC(=O)c1[nH]c2ccc(O)cc2c1C(=O)c1cc(OC)c(O)c(OC)c1`, for which the survival at 10 µM in the data set with Zika virus [1] amounted to 0%. Moreover, the viability at 96 h, 10 µM in data set [2] worked out at 94%.

As to `CCOC(=O)c1[nH]c2ccccc2c1C(=O)c1cc(OC)c(O)c(OC)c1`, in the data set with Zika virus [1], the survival at 10 µM came out at 0%. For the same molecule, in data set [2], the viability at 96 h, 10 µM was 100%.

Consider `COC(=O)c1[nH]c2ccc(Cl)cc2c1Cc1cc(OC)cc(OC)c1`, for which the survival at 10 µM in the data set on Zika virus [1] amounted to 16%. Further, the viability at 96 h, 10 µM in [2] was determined as 100%. In data set [3], this molecule had a half-inhibitory concentration (IC50) of 770 µM.

For `COC(=O)c1[nH]c2ccc(Br)cc2c1Cc1cc(OC)c(O)c(OC)c1`, the survival at 10 µM with Zika virus [1] stood at 2%. Moreover, the viability at 96 h, 10 µM in [2] is 100%.

Regarding `CCOC(=O)c1[nH]c2ccc(OC)cc2c1C(=O)c1cc(OC)c(O)c(OC)c1`, in the data set on Zika virus [1], the survival at 10 µM was 47%. For the same molecule, in [2], the viability at 96 h, 10 µM worked out at 100%.

`COC(=O)c1[nH]c2ccc(OC)cc2c1C(=O)c1cc(OC)c(O)c(OC)c1`: in the data set on Zika virus [1], the survival at 10 µM amounted to 49%. Moreover, the viability at 96 h, 10 µM in data set [2] is 100%.

For the molecule `CCOC(=O)c1[nH]c2ccccc2c1Cc1cc(OC)c(O)c(OC)c1`, in the data set with Zika virus [1], the survival at 10 µM worked out at 0%. Also, in data set [2], the viability at 96 h, 10 µM was found to be 100%.

On to `NC(=O)c1ncn([C@@H]2O[C@H](CO)[C@@H](O)[C@H]2O)n1` [RIBAVIRIN], for which, in data set [4], the viability at 96 h, 100 µM stood at 100%.

Take `COC(=O)c1[nH]c2ccc(Cl)cc2c1Cc1cc(OC)c(O)c(OC)c1`: in the data set on Zika virus [1], the survival at 10 µM stood at 23%. Moreover, the viability at 96 h, 10 µM in [2] is 100%.

For `CCOC(=O)c1[nH]c2ccc(Br)cc2c1Cc1cc(OC)c(O)c(OC)c1`, the survival at 10 µM with Zika virus [1] stood at 20%. For the same molecule, in data set [2], the viability at 96 h, 10 µM turned out to be 100%.

As to `COc1cc(C(=O)c2c(-c3ccccc3)[nH]c3ccc(Br)cc23)cc(OC)c1O`, in the data set with Zika virus [1], the survival at 10 µM amounted to 23%. Further, the viability at 96 h, 10 µM in data set [2] turned out to be 100%.

For `COC(=O)c1[nH]c2ccc(Cl)cc2c1C(=O)c1cc(OC)c(O)c(OC)c1`, the survival at 10 µM in the data set on Zika virus [1] stood at 47%. Further, the viability at 96 h, 10 µM in data set [2] is 100%. The IC50 in data set [3] was determined as 158 µM; in [6], 112 µM; in the data set with Zika virus [10] (MR766, Huh-7, 72 h) it was 13.9 µM; in the data set with Zika virus [17] it was 13.7 µM. Besides, the EC50 with Zika virus [5] worked out at 13.9 µM. The affinity in data set [7], expressed as Ki, was 280 µM. Besides, the Kd in data set [8] was > 1000 µM. The Activity result with Zika virus [9] is “Dose-dependent effect”; in the data set on Huh-7 it was “Non-Toxic”. In addition, the inhibition entry in the data set with Zika virus [10] (time 3.0 day) is “Dose-dependent effect”. Besides, the result in the data set on Zika virus [11], in the data set on Zika virus [12], in the data set on Zika virus [13], with Zika virus [14], with Zika virus [15] and in the data set on Zika virus [16] was Active. The result in the data set with Zika virus [18] was Active.

Regarding `CCOC(=O)c1[nH]c2ccc(OC)cc2c1Cc1cc(OC)c(O)c(OC)c1`, the survival at 10 µM in the data set on Zika virus [1] came out at 28%. Moreover, in data set [2], the viability at 96 h, 10 µM is 100%.

For the molecule `COC(=O)c1[nH]c2ccc(Br)cc2c1C(=O)c1cc(OC)c(O)c(OC)c1`, in the data set on Zika virus [1], the survival at 10 µM came to 22%. For the same molecule, the viability at 96 h, 10 µM in data set [2] was found to be 100%.

In the case of `CCOC(=O)c1[nH]c2ccc(Br)cc2c1C(=O)c1cc(OC)c(O)c(OC)c1`, the survival at 10 µM with Zika virus [1] is 66%. The viability at 96 h, 10 µM in data set [2] turned out to be 100%. The IC50 in data set [3] was 33 µM; in the data set on Zika virus [17], 15.8 µM. In addition, the EC50 in the data set with Zika virus [5] came to 16.2 µM. In [7], this molecule gave a Ki of 48 µM. Moreover, the dissociation constant (Kd) in data set [8] was 300 µM.
